The target in the assay is T1, Avi-tagged FL MALT-1 (Homo sapiens, UniProt Q9UDY8).
T1 construct: Avi-tagged FL MALT-1 (Pharmaron, stored at −70° C.); Avi-tag; purchased Pharmaron
T1 sequence (Q9UDY8 1-824): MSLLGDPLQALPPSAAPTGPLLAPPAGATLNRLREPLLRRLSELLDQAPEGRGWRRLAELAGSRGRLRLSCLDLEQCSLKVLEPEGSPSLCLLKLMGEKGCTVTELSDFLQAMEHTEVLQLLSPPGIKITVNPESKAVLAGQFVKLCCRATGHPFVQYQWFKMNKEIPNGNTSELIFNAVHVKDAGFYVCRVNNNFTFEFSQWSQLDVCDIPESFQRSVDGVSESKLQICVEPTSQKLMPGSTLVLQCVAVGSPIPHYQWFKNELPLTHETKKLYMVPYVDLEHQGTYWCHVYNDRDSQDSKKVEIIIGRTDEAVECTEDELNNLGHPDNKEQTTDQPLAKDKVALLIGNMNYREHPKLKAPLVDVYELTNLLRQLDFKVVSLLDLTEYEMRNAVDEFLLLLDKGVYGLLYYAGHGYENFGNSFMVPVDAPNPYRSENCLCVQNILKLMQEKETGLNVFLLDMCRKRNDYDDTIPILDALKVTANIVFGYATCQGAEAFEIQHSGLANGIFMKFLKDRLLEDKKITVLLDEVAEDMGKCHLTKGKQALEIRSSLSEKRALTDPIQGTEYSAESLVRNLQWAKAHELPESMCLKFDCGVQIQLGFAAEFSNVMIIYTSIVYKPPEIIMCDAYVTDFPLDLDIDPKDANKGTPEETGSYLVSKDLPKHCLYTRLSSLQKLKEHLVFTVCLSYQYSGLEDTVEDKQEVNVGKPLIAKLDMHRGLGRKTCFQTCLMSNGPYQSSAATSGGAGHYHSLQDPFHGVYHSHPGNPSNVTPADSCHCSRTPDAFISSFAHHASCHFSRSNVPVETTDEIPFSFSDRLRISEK
The experiment in a line: MALT-1 Fluorogenic Peptide Cleavage Assay (MALT1 inhibition assay). The format is biochemical. The note with it: Ac-LRSR-AMC peptide substrate; 30 min pre-incubation, 90 min reaction at room temperature; fluorescence. The method, boiled down: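 Full-length Avi-tagged enzyme preincubated 30 min at room temperature with compound (2% DMSO final) in HEPES pH 6.89 buffer with sodium citrate, TCEP, EDTA and CHAPS. Ac-LRSR-AMC substrate added at Km or 10×Km (working stocks 50 or […] μM); fluorescence (ex 342/em 441 nm) after 90 min; IC50 from sigmoidal fit.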
In the case of `Cn1cc2c(-c3nsc(C(=O)Nc4cc(C(F)(F)F)ccn4)c3C3CC3)cccc2n1` [I-209, 4-cyclopropyl-3-(2-methylindazol-4-yl)-N-[4-(trifluoromethyl)pyridine-2-yl]-1,2-thiazole-5-carboxamide], the IC50 was more than 2500 nM. For `O=C(Nc1ccnc(C(F)(F)F)c1)c1snc(-c2cccn3nccc23)c1C1CC1` [I-210, 4-cyclopropyl-3-(pyrazolo[1,5-a]pyridine-4-yl)-N-(2-(trifluoromethyl)pyridine-4-yl)isothiazole-5-carboxamide] the value was not above 400 nM. For `Cc1cc(NC(=O)c2snc(-c3cccn4nccc34)c2C2CC2)ccn1` [I-211, 4-cyclopropyl-N-(2-methylpyridin-4-yl)-3-(pyrazolo[1,5-a]pyridine-4-yl)isothiazole-5-carboxamide] the value was not above 400 nM.

In turn, `O=C(Nc1cnc(C(=O)N2CC(O)C2)c(Cl)c1)c1snc(-c2cccn3nccc23)c1C1CC1` [I-212, N-(5-chloro-6-(3-hydroxyazetidine-1-carbonyl)pyridin-3-yl)-4-cyclopropyl-3-(pyrazolo[1,5-a]pyridin-4-yl)isothiazole-5-carboxamide] came in with an IC50 not above 400 nM.

The values above are taken from patent US20260124222A1, “ISOTHIAZOLYLCARBOXAMIDE COMPOUNDS AND THEIR USE IN THERAPY” (HOTSPOT THERAPEUTICS, INC., priority 2022, published 2026).
